Values of other authors, collected in patent US20190117606A1, “COMPOSITIONS COMPRISING L-THEANINE, PROANTHOCYANIDIN/S AND A CATECHIN AND USES THEREOF” (priority 2016, published 2019).

Conditions: in vivo

Crossing of the blood-brain barrier: known to cross the blood-brain barrier
Time to peak concentrations after consumption: about one
Compound: CCNC(=O)CC[C@H](N)C(=O)O [L-theanine, γ-glutamylethylamide]
